Measured values published in patent US10617693B2, “Methods of treating and/or preventing actinic keratosis” (Athenex, Inc., priority 2017, dated 2020).

Tested on: subjects with AK on the dorsal forearm
Assay: Phase 1 study KX01-AK-01-US: local skin reactions (investigator score 0 none to 4 severe; subject score 0 none to 3 severe) and adverse events
[1] = Cohort 1: 0.5 mg/25 cm^2 QD x3 days, N=4
[2] = Cohort 2: 2 mg/100 cm^2 QD x3 days, N=10
[3] = Cohort 3: 0.5 mg/25 cm^2 QD x5 days, N=8
[4] = Cohort 4: 2 mg/100 cm^2 QD x5 days, N=8

Method: A Phase 1, single-center, safety, tolerability and pharmacokinetic study of KX-01 was performed on subjects with AK on the dorsal forearm. This was an open-label, uncontrolled, nonrandomized, sequential group clinical trial conducted at a single investigational center in the United States. The primary objectives of the study were to assess the safety, tolerability and pharmacokinetics of KX-01 in subjects with AK. The secondary objective was to evaluate the activity of KX-01 administered topically to the dorsal forearm in subjects with AK.
KX-01 was administered topically on treatment days. All subjects were monitored for safety and tolerability that included LSRs, AEs, vital signs, clinical laboratory tests, ECGs, and physical examinations at baseline and at pre-defined time points during treatment and follow-up on days 1, 2, 3, 4, 5, 8, 10, 17, 31 and 45.
LSRs (erythema, flaking/scaling, crusting, swelling, vesiculation/pustulation, erosion/ulceration) were assessed by the investigator or trained designee using a 4-point scale according to the protocol. The subject's assessment of the symptoms (stinging/burning, pruritus) associated with irritation of the treatment area was evaluated on a 4-point scale (0=none, 1=mild, 2=moderate, 3=severe). Subjects were queried for spontaneously reported AEs at each study visit before assessment of LSRs. LSRs and AEs were reported separately. All LSRs were to be followed to resolution or stabilization.

SMILES: O=C(Cc1ccc(-c2ccc(OCCN3CCOCC3)cc2)cn1)NCc1ccccc1 [KX-01]
- Day LSRs tended to peak (3-day treatment cohorts (Cohorts 1 and 2)): ~5 days
- Day LSRs tended to peak (5-day treatment cohorts (Cohorts 3 and 4)): ~10 days
- Burning (subject-assessed) max score 0, number of subjects [1]: 4
- Burning (subject-assessed) max score 1, number of subjects [1]: 0
- Burning (subject-assessed) max score 2, number of subjects [1]: 0
- Burning (subject-assessed) max score 3, number of subjects [1]: 0
- Crusting max score 0, number of subjects [1]: 4
- Crusting max score 1, number of subjects [1]: 0
- Crusting max score 2, number of subjects [1]: 0
- Crusting max score 3, number of subjects [1]: 0
- Crusting max score 4, number of subjects [1]: 0
- Erosions/ulcers max score 0, number of subjects [1]: 4
- Erosions/ulcers max score 1, number of subjects [1]: 0
- Erosions/ulcers max score 2, number of subjects [1]: 0
- Erosions/ulcers max score 3, number of subjects [1]: 0
- Erosions/ulcers max score 4, number of subjects [1]: 0
- Erythema max score 0, number of subjects [1]: 0
- Erythema max score 1, number of subjects [1]: 2
- Erythema max score 2, number of subjects [1]: 1
- Erythema max score 3, number of subjects [1]: 1
- Erythema max score 4, number of subjects [1]: 0
- Flaking/scaling max score 0, number of subjects [1]: 0
- Flaking/scaling max score 1, number of subjects [1]: 3
- Flaking/scaling max score 2, number of subjects [1]: 0
- Flaking/scaling max score 3, number of subjects [1]: 1
- Flaking/scaling max score 4, number of subjects [1]: 0
- Pruritus (subject-assessed) max score 0, number of subjects [1]: 3
- Pruritus (subject-assessed) max score 1, number of subjects [1]: 1
- Pruritus (subject-assessed) max score 2, number of subjects [1]: 0
- Pruritus (subject-assessed) max score 3, number of subjects [1]: 0
- Stinging (subject-assessed) max score 0, number of subjects [1]: 3
- Stinging (subject-assessed) max score 1, number of subjects [1]: 1
- Stinging (subject-assessed) max score 2, number of subjects [1]: 0
- Stinging (subject-assessed) max score 3, number of subjects [1]: 0
- Swelling max score 0, number of subjects [1]: 4
- Swelling max score 1, number of subjects [1]: 0
- Swelling max score 2, number of subjects [1]: 0
- Swelling max score 3, number of subjects [1]: 0
- Swelling max score 4, number of subjects [1]: 0
- Vesicles/pustules max score 0, number of subjects [1]: 4
- Vesicles/pustules max score 1, number of subjects [1]: 0
- Vesicles/pustules max score 2, number of subjects [1]: 0
- Vesicles/pustules max score 3, number of subjects [1]: 0
- Vesicles/pustules max score 4, number of subjects [1]: 0
- Burning (subject-assessed) max score 0, number of subjects [2]: 6
- Burning (subject-assessed) max score 1, number of subjects [2]: 3
- Burning (subject-assessed) max score 2, number of subjects [2]: 1
- Burning (subject-assessed) max score 3, number of subjects [2]: 0
- Crusting max score 0, number of subjects [2]: 5
- Crusting max score 1, number of subjects [2]: 5
- Crusting max score 2, number of subjects [2]: 0
- Crusting max score 3, number of subjects [2]: 0
- Crusting max score 4, number of subjects [2]: 0
- Erosions/ulcers max score 0, number of subjects [2]: 10
- Erosions/ulcers max score 1, number of subjects [2]: 0
- Erosions/ulcers max score 2, number of subjects [2]: 0
- Erosions/ulcers max score 3, number of subjects [2]: 0
- Erosions/ulcers max score 4, number of subjects [2]: 0
- Erythema max score 0, number of subjects [2]: 0
- Erythema max score 1, number of subjects [2]: 6
- Erythema max score 2, number of subjects [2]: 2
- Erythema max score 3, number of subjects [2]: 2
- Erythema max score 4, number of subjects [2]: 0
- Flaking/scaling max score 0, number of subjects [2]: 1
- Flaking/scaling max score 1, number of subjects [2]: 2
- Flaking/scaling max score 2, number of subjects [2]: 1
- Flaking/scaling max score 3, number of subjects [2]: 6
- Flaking/scaling max score 4, number of subjects [2]: 0
- Pruritus (subject-assessed) max score 0, number of subjects [2]: 4
- Pruritus (subject-assessed) max score 1, number of subjects [2]: 6
- Pruritus (subject-assessed) max score 2, number of subjects [2]: 0
- Pruritus (subject-assessed) max score 3, number of subjects [2]: 0
- Stinging (subject-assessed) max score 0, number of subjects [2]: 8
- Stinging (subject-assessed) max score 1, number of subjects [2]: 2
- Stinging (subject-assessed) max score 2, number of subjects [2]: 0
- Stinging (subject-assessed) max score 3, number of subjects [2]: 0
- Swelling max score 0, number of subjects [2]: 8
- Swelling max score 1, number of subjects [2]: 2
- Swelling max score 2, number of subjects [2]: 0
- Swelling max score 3, number of subjects [2]: 0
- Swelling max score 4, number of subjects [2]: 0
- Vesicles/pustules max score 0, number of subjects [2]: 10
- Vesicles/pustules max score 1, number of subjects [2]: 0
- Vesicles/pustules max score 2, number of subjects [2]: 0
- Vesicles/pustules max score 3, number of subjects [2]: 0
- Vesicles/pustules max score 4, number of subjects [2]: 0
- Burning (subject-assessed) max score 0, number of subjects [3]: 4
- Burning (subject-assessed) max score 1, number of subjects [3]: 3
- Burning (subject-assessed) max score 2, number of subjects [3]: 1
- Burning (subject-assessed) max score 3, number of subjects [3]: 0
- Crusting max score 0, number of subjects [3]: 1
- Crusting max score 1, number of subjects [3]: 7
- Crusting max score 2, number of subjects [3]: 0
- Crusting max score 3, number of subjects [3]: 0
- Crusting max score 4, number of subjects [3]: 0
- Erosions/ulcers max score 0, number of subjects [3]: 8
- Erosions/ulcers max score 1, number of subjects [3]: 0
- Erosions/ulcers max score 2, number of subjects [3]: 0
- Erosions/ulcers max score 3, number of subjects [3]: 0
- Erosions/ulcers max score 4, number of subjects [3]: 0
- Erythema max score 0, number of subjects [3]: 0
- Erythema max score 1, number of subjects [3]: 2
- Erythema max score 2, number of subjects [3]: 4
- Erythema max score 3, number of subjects [3]: 2
- Erythema max score 4, number of subjects [3]: 0
- Flaking/scaling max score 0, number of subjects [3]: 0
- Flaking/scaling max score 1, number of subjects [3]: 2
- Flaking/scaling max score 2, number of subjects [3]: 2
- Flaking/scaling max score 3, number of subjects [3]: 4
- Flaking/scaling max score 4, number of subjects [3]: 0
- Pruritus (subject-assessed) max score 0, number of subjects [3]: 2
- Pruritus (subject-assessed) max score 1, number of subjects [3]: 4
- Pruritus (subject-assessed) max score 2, number of subjects [3]: 1
- Pruritus (subject-assessed) max score 3, number of subjects [3]: 1
- Stinging (subject-assessed) max score 0, number of subjects [3]: 6
- Stinging (subject-assessed) max score 1, number of subjects [3]: 1
- Stinging (subject-assessed) max score 2, number of subjects [3]: 1
- Stinging (subject-assessed) max score 3, number of subjects [3]: 0
- Swelling max score 0, number of subjects [3]: 4
- Swelling max score 1, number of subjects [3]: 1
- Swelling max score 2, number of subjects [3]: 0
- Swelling max score 3, number of subjects [3]: 3
- Swelling max score 4, number of subjects [3]: 0
- Vesicles/pustules max score 0, number of subjects [3]: 8
- Vesicles/pustules max score 1, number of subjects [3]: 0
- Vesicles/pustules max score 2, number of subjects [3]: 0
- Vesicles/pustules max score 3, number of subjects [3]: 0
- Vesicles/pustules max score 4, number of subjects [3]: 0
- Burning (subject-assessed) max score 0, number of subjects [4]: 4
- Burning (subject-assessed) max score 1, number of subjects [4]: 4
- Burning (subject-assessed) max score 2, number of subjects [4]: 0
- Burning (subject-assessed) max score 3, number of subjects [4]: 0
- Crusting max score 0, number of subjects [4]: 4
- Crusting max score 1, number of subjects [4]: 4
- Crusting max score 2, number of subjects [4]: 0
- Crusting max score 3, number of subjects [4]: 0
- Crusting max score 4, number of subjects [4]: 0
- Erosions/ulcers max score 0, number of subjects [4]: 7
- Erosions/ulcers max score 1, number of subjects [4]: 1
- Erosions/ulcers max score 2, number of subjects [4]: 0
- Erosions/ulcers max score 3, number of subjects [4]: 0
- Erosions/ulcers max score 4, number of subjects [4]: 0
- Erythema max score 0, number of subjects [4]: 0
- Erythema max score 1, number of subjects [4]: 2
- Erythema max score 2, number of subjects [4]: 4
- Erythema max score 3, number of subjects [4]: 2
- Erythema max score 4, number of subjects [4]: 0
- Flaking/scaling max score 0, number of subjects [4]: 0
- Flaking/scaling max score 1, number of subjects [4]: 2
- Flaking/scaling max score 2, number of subjects [4]: 4
- Flaking/scaling max score 3, number of subjects [4]: 2
- Flaking/scaling max score 4, number of subjects [4]: 0
- Pruritus (subject-assessed) max score 0, number of subjects [4]: 0
- Pruritus (subject-assessed) max score 1, number of subjects [4]: 4
- Pruritus (subject-assessed) max score 2, number of subjects [4]: 4
- Pruritus (subject-assessed) max score 3, number of subjects [4]: 0
- Stinging (subject-assessed) max score 0, number of subjects [4]: 5
- Stinging (subject-assessed) max score 1, number of subjects [4]: 3
- Stinging (subject-assessed) max score 2, number of subjects [4]: 0
- Stinging (subject-assessed) max score 3, number of subjects [4]: 0
- Swelling max score 0, number of subjects [4]: 1
- Swelling max score 1, number of subjects [4]: 6
- Swelling max score 2, number of subjects [4]: 1
- Swelling max score 3, number of subjects [4]: 0
- Swelling max score 4, number of subjects [4]: 0
- Vesicles/pustules max score 0, number of subjects [4]: 8
- Vesicles/pustules max score 1, number of subjects [4]: 0
- Vesicles/pustules max score 2, number of subjects [4]: 0
- Vesicles/pustules max score 3, number of subjects [4]: 0
- Vesicles/pustules max score 4, number of subjects [4]: 0
- Severity of TEAEs (all TEAEs): mild to moderate
- Local tolerability (all cohorts): acceptable
- Number of TEAEs (all cohorts): 10
- Subjects reporting treatment emergent adverse events (TEAEs) (all cohorts): Four of 30
- Subjects with a vesicle or pustule (all cohorts): No subject
- Subjects with an LSR score of 4 in any category (all cohorts): No subject
- Subjects with LSRs as assessed by the Investigator (all cohorts, 30 subjects): 30
- Day by which application-site symptoms resolved (human, in vivo): ≤ 45 days
- Nature of local skin reactions (human, in vivo): primarily mild
- Day LSRs appeared (in general): 2 days
- Subjects with erythema and/or flaking/scaling score 1 or 2 at day 45 (of 30 subjects): Fifteen
